For data set [1], the system named is J774 macrophages. Nature of the data set: Alamar Blue macrophage J774 viability assay. The settings on record: Mus musculus, 72 hours culture with compound, Alamar Blue read-out. Type of data set: cell-based. The procedure:
Initial screening of candidate compounds was performed using in vitro assays to determine potency, metabolic stability and solubility in biologically relevant fluids. Potency was assessed using a viability assay based on the survival of the J774 macrophage cell line. Macrophages are closely related to osteoclasts and have been used previously as a model system for osteoclast survival (see, e.g., Luckman et al., 1998). Like osteoclasts, J774 macrophages are dependent on continued NFκB activation for survival, thereby providing a valuable screen for compounds with anti-inflammatory activity. Metabolic stability was measured by determining the rate of disappearance of compound in the presence of human liver microsomal preparations, as quantified by LC-MS/MS. Solubility was measured by equilibration of the compound in fasted state simulated intestinal fluid (FaSSIF) and quantified by HPLC.
In vitro potency as anti-inflammatory agents was determined for a number of APSAP compounds by incubation with J774 macrophages and subsequent determination of cell viability.
J774 cells were plated at 10^4 cells per well in 100 μL αMEM (α Modified Eagle Medium) in 96-well plates and grown overnight. The next day, test compounds were added to the cultures, and cultures were continued for another 72 hours. At the end of the culture period, cell survival was determined using an Alamar Blue assay as previously described (see, e.g., Nociari et al., 1998).
Alamar Blue is an oxidation-reduction sensitive indicator. The dye itself is in the oxidised state, which is blue and non-fluorescent. The dye can accept electrons from reducing species, such as NADPH and FADH, to form a reduced dye species, which is red and fluorescent. Thus the transformation from oxidised form to reduced form can be measured by fluorimetric or colourimetric means. For fluorescence measurements, 530-560 nm excitation and 590 nm emission wavelengths are typically used. For colourimetric measurements, absorbance at 570 nm (reduced form) and 600 nm (oxidised form) is typically measured. A simple calculation is performed to determine the relative quantities of the two species.
A high ratio of the reducing species, NADPH and FADH, to the corresponding oxidised species, NADP and FAD, is an indicator that cells are proliferating and viable. A low ratio indicates cells that are quiescent or non-viable.
Briefly, Alamar Blue (Biosource International) was added undiluted to each well (1:10 v/v, 10 μL). The plate was incubated at 37° C. for 3-4 hours and the fluorescence was measured at 590 nm, with a 25 nm bandwidth. A high reading indicated cells with normal viability, and a low reading indicated cells that have been damaged and are no longer proliferating normally. The controls gave a high fluorescence reading, indicating a high number of live, healthy cells. A potent test compound gave a low fluorescence reading.
The average results for each test compound (n=5) were expressed as a percent (%) of the average control value.
Addition of Compounds. All of the compounds studied were made up as 100 mM solutions in DMSO. These stock solutions were then diluted 1000-10000× in culture medium (αMEM). From these 100 μM or 10 μM solutions, convenient quantities (3-33 μL) were added directly to the wells so as to give the desired final compound concentration.
Background: The colour change of resazurin is a common sign of viable cells or microbes.

Data set [2] in a line: In vivo pharmacokinetics in rat, oral and intravenous. On the set-up: species or system Sprague-Dawley rats. To be noted: 1 mg/kg. The procedure: Absorption and metabolic stability were studied using an in vivo pharmacokinetics assay. Drug levels were assessed using ultra-performance LC/TOF-MS.
Three male Sprague-Dawley rats, 200-300 g, were dosed per route. […] Test compound was formulated in 50:50 tetraethylene glycol:PBS for both routes. Animals were given free access to food throughout the study. On the day prior to dosing, the carotid artery was cannulated for sample collection and for the intravenous study, the jugular vein was cannulated to enable dosing.
Blood samples were taken from the carotid artery at the following time points and placed in heparinised tubes:
Oral dosing—predose, 0.25, 0.5, 1, 2, 4, 8 and 24 hours post dose.
IV dosing—predose, 0.08, 0.25, 0.5, 1, 2, 4 and 8 hours post dose.
Blood samples were centrifuged to obtain plasma, which was transferred to a separate container and frozen at −20° C.
Samples were thawed at room temperature and prepared by protein precipitation with acetonitrile in the ratio 1:2 with plasma, followed by centrifugation for 10 minutes at 16,100×g (Eppendorf 5415D, Eppendorf AG, Hamburg, Germany). The supernatants were collected for analysis. The standard samples were prepared similarly, after spiking blank rat plasma samples to study compound concentrations at 1, 2, 5, 10, 20, 50, 100, 200, 500 and 1000 ng/mL. In addition, extra samples were prepared from 0-1 hour i.v. samples by diluting 1/20 with 50% aqueous acetonitrile to avoid exceeding the linear range of the analytical method.
A Waters Acquity liquid ultra-performance chromatographic system (Waters Corp., Milford, Mass., USA) with autosampler, vacuum degasser and column oven was used. The analytical column used for all compounds was a Waters BEH C18, (2.1×50 mm, 1.7 μm, Waters Corp, Milford, Mass., USA) together with a 0.2 μm on-line filter before the column. The eluents were 0.1% acetic acid (A, pH 3.2) and methanol (B). Gradient elution from 5% to 60% B in two minutes was employed, followed by one minute gradient to 90% B and column equilibration. The flow rate was 0.5 mL/min and the column oven temperature was 35° C. The flow was directed to the MS via Water Acquity photo-diode-array (PDA) detector. LC/TOF-MS data were recorded with a Micromass LCT Premier XE time-of-flight (TOF) mass spectrometer (Micromass Ltd., Manchester, England) equipped with a LockSpray electrospray ionization source. A positive ionization mode of electrospray was used for all compounds. The mass range of m/z 100-900 was acquired. The W-option of the reflector was used, and the DRE (dynamic range enhancement) option was set to on. The mass spectrometer and HPLC system were operated under Micromass MassLynx 4.1 software. Leucine enkephalin ([M+H]^+ m/z 556.2771) was used as a lock mass compound for accurate mass measurements and was delivered into the LockSpray probe with a syringe pump. MassLynx 4.1 software was used for controlling the instrumentation and for data processing.
The pharmacokinetic parameters for the test compounds were calculated by WinNonlin Pro (Pharsight Corp, CA) using standard noncompartmental methods. The elimination phase half-life (t1/2) was calculated by least-squares regression analysis of the terminal linear part of the log concentration−time curve. The area under the plasma concentration−time curve (AUC) was determined by use of the linear trapezoidal rule up to the last measurable concentration and thereafter by extrapolation of the terminal elimination phase to infinity. The tentative oral bioavailability (F) was calculated by dividing the AUC (0-24 hours) after p.o. administration by the AUC (0-8 hours) after i.v. administration, i.e., F=AUC(p.o.)/AUC(i.v), and reported as percentages (%).

Like-named read-outs stand apart in the source and are kept apart here.

The term IC50 denotes the concentration that inhibits the measured activity by half. For orientation: bioavailability means the share of a dose that reaches the circulation, judged against a reference dose that is usually intravenous.

In the case of `CNC(CO)c1cccc(NS(=O)(=O)c2ccc(-c3ccc(F)cc3F)cc2)c1` (stereo not shown) [ABD789, 2′,4′-Difluoro-N-(3-(2-hydroxy-1-(methylamino)ethyl)phenyl)biphenyl-4-sulfonamide], in data set [1], the IC50 is 140 nM. Besides, the AUC in data set [2] (i.v.) is listed as 11900 ng/mL/min; in data set [2] (p.o.), 1500 ng/mL/min. In addition, the half-life in data set [2] (male, Sprague-Dawley, plasma, iv, i.v., read-out: T½ (converted)) was 0.81 h; in data set [2] (male, Sprague-Dawley, plasma, po, following oral administration, read-out: extended half life (converted)), 7.67 h; in data set [2] (male, Sprague-Dawley, plasma, po, p.o., read-out: T½ (converted)) it was 3.17 h. Further, the bioavailability in data set [2] (male, Sprague-Dawley, plasma, oral, read-out: Bioavailability F %) amounted to 38%.

The values are drawn from patent US8207167B2, “Aryl-phenyl-sulfonamide-phenylene compounds and their use” (PIMCO 2664 Limited, priority 2008, dated 2012).
